Results reported in US11839689B2, “Formulations of enzalutamide” (Astellas Pharma Inc., priority 2012, dated 2023).

Legend:
Assay type in all cases: physicochemical
[1] = SEM particle morphology before and after 1 day at 50° C./75% RH; details: after 1 day exposure to 50° C./75% RH
Procedure: Scanning electron micrographs (SEMs) were obtained for samples before and after 1 day exposure to a 50° C./75% RH environment. After exposure of these samples to this challenging storage environment, no crystals were seen, indicative of the ability of these samples to maintain the amorphous character of enzalutamide. […] Thus these three embodiments would require controlled storage conditions to maintain their efficacy.

[2] = Membrane-permeation (MP) dissolution test
Procedure: The membrane permeability test described in the Examples below is carried out as follows. A drug-permeable membrane is placed between feed and permeate reservoirs. A sufficient quantity of test composition is added to a feed test medium and placed in the feed reservoir, while a water immiscible organic solution, such as a 60/40 mixture of decanol/decane, is placed in the permeate reservoir. Samples are removed from the permeate reservoir and analyzed for the concentration of drug as a function of time. […] Further details of this membrane permeation test are disclosed in U.S. Pat. No. 7,611,630 B2.
The MP-dissolution test, whose details are described above, measures a capability of low solubility drug formulations which is not measured in the microcentrifuge dissolution test utilized in Examples 4 and 7. This test mimics an aspect of the in vivo situation in the GI tract. In the in vivo situation, it is generally accepted that free drug in solution (i.e. individual drug molecules dissolved in the GI medium without association with formulation components) is the species which is absorbed across the gastrointestinal wall into the bloodstream. As free drug is absorbed, the formulation must be capable of supplying more free drug for absorption. The membrane permeation test measures the amount of drug which crosses a polymeric membrane (as a model of the GI wall) over time, and thus reflects the ability of the formulation to resupply free drug in solution to be further passively transported across the polymeric membrane. In Table 8.1 below, Maximum Flux is the maximum observed rate of permeation across the polymeric membrane, based on the slope of the absorption curve over any period within the 240 minute duration of the experiment, normalized for membrane area. Total drug recovery is the % of the initial drug dose which has crossed the membrane when the test ended at 240 minutes.
The membrane permeation test was carried out for 60% A enzalutamide SDDs with HPMCAS-M, HPMC E3 Prem, HPMCP-55, and Eudragit-L100, as described in Example 8.

[3] = Microcentrifuge dissolution test after suspension in 0.5% methylcellulose for 2 hours
Procedure: Drugs and drug formulations are sometimes dosed as aqueous suspensions, particularly for pediatric patients. The ability of various enzalutamide SDDs to retain their ability to maintain drug supersaturation in vitro was assessed by using the microcentrifuge dissolution test to measure drug dissolution after suspension in 0.5% methylcellulose in water for 2 hours. Methylcellulose is a standard viscosifying suspending agent which is used to maintain drug particles in suspension in oral suspension dosage forms. The table below presents in vitro dissolution performance before and after suspension in 0.5% methylcellulose.

[4] = Microcentrifuge dissolution test in Model Fasted Duodenal Solution; details: for Enzalutamide Concentration, 0 min / Enzalutamide Concentration, 4 min / Enzalutamide Concentration, 10 min / Enzalutamide Concentration, 20 min / Enzalutamide Concentration, 40 min / Enzalutamide Concentration, 90 min / Enzalutamide Concentration, 1200 min: MFDS pH 6.5; for Enzalutamide Concentration, 0 min / Enzalutamide Concentration, 4 min / Enzalutamide Concentration, 10 min / Enzalutamide Concentration, 20 min / Enzalutamide Concentration, 40 min / Enzalutamide Concentration, 90 min / Enzalutamide Concentration, 1200 min / AUC90 (area under the curve at 90 minutes) / Cmax, 90 (maximum drug concentration through 90 minutes): dose 200 μg/ml; for AUC90 (area under the curve at 90 minutes) / Cmax, 90 (maximum drug concentration through 90 minutes): Table 4.2, MFDS
Description: The in vitro dissolution test to evaluate enhanced drug concentration in aqueous solution can be conducted by (1) adding with agitation a sufficient quantity of control composition, that is, the crystalline enzalutamide alone, to the in vitro test medium, typically MFD or PBS solution, to determine the maximum concentration of the enzalutamide achieved under the conditions of the test; (2) adding with agitation a sufficient quantity of test composition (e.g., the enzalutamide and polymer) in an equivalent test medium, such that if all the enzalutamide dissolved, the theoretical concentration of enzalutamide would exceed the observed maximum concentration of enzalutamide by a factor of about 20; and (3) comparing the measured MDC and/or aqueous concentration versus time AUC90 of the test composition in the test medium with the maximum concentration, and/or the aqueous concentration versus time AUC90 of the control composition. In conducting such a dissolution test, the amount of test composition or control composition used is an amount such that if all of the enzalutamide dissolved, the test enzalutamide concentration would be at least about 20-fold that of the control enzalutamide concentration.
The concentration of dissolved enzalutamide is typically measured as a function of time by sampling the test medium and plotting enzalutamide concentration in the test medium vs. time so that the MDC can be ascertained. The MDC is taken to be the maximum value of dissolved enzalutamide measured over the duration of the test. The enzalutamide concentration versus time AUC90 is calculated by integrating the concentration versus time curve over any 90-minute time period between the time of introduction of the composition into the aqueous use environment (time equals zero) and 270 minutes following introduction to the use environment (time equals 270 minutes). Typically, when the composition reaches its MDC rapidly, in less than about 30 minutes, the time interval used to calculate AUC90 is from time equals zero to time equals 90 minutes. However, if the AUC90 over any 90-minute time period described above of a composition meets the criteria of compositions described herein, then the composition is included in compositions of this disclosure. The time period 270 min is chosen because of its physiological relevance. Drug absorption in mammals generally occurs in the small intestine, and the small intestinal transit time in humans is approximately 4.5 hr, or 270 min.
To avoid large enzalutamide particulates which would give an erroneous determination, the test solution is either filtered or centrifuged. “Dissolved enzalutamide” is typically taken as that material that either passes a 0.45 micron syringe filter or, alternatively, the material that remains in the supernatant following centrifugation. Filtration can be conducted using a 13 mm, 0.45 micron polyvinylidine difluoride syringe filter, such as the filter sold by Scientific Resources under the trademark TITAN′. Centrifugation is typically carried out in a polypropylene microcentrifuge tube by centrifuging at 13,000 G for 60 seconds. Other similar filtration or centrifugation methods can be employed and useful results obtained. For example, using other types of microfilters may yield values somewhat higher or lower (+/−10-40%) than that obtained with the filter specified above but will still allow identification of dispersions. It is recognized that this definition of “dissolved enzalutamide” encompasses not only monomeric solvated enzalutamide molecules but also a wide range of species such as polymer/enzalutamide assemblies that have submicron dimensions such as enzalutamide aggregates, aggregates of mixtures of polymer and enzalutamide, micelles, polymeric micelles, colloidal particles, polymer/enzalutamide complexes, and other such enzalutamide-containing species that are present in the filtrate or supernatant in the specified dissolution test. […]

[5] = Glass transition temperature by modulated DSC as a function of relative humidity
Procedure: Below Tg, an amorphous material is said to be in a “glassy” state in which molecular mobility is severely restricted. […] Glass transition temperatures Tg were determined for amorphous enzalutamide, and for spray-dried dispersions (SDDs) of enzalutamide with HPMCAS-M or PVP-VA64, at <5% and 75% relative humidity (RH). Tgs were determined by modulated differential scanning calorimetry (mDSC), utilizing the following protocol. Samples (about 5 mg) were equilibrated at the desired RH overnight in an environmental chamber at ambient temperature. The samples were then loaded into pans and sealed inside the environmental chamber. The samples were analyzed on a Q1000 mDSC (TA Instruments, New Castle, Delaware). Samples were typically scanned over the temperature range of −40° C. to 180° C., at a scan rate of 2.5° C./min, and a modulation rate of ±1.5° C./min. The data sampling interval was 0.20 sec/point. The Tg was calculated based on half height.

[6] = Table 8.1, within 240 minutes, normalized for membrane area
[7] = 0 hr, before suspension in aqueous 0.5% methylcellulose
[8] = 2 hr, after suspension for 2 hr in aqueous 0.5% methylcellulose

Row | Maximum Flux [2, 6] | Enzalutamide Concentration, 0 min ([4]; 0 min) | Enzalutamide Concentration, 4 min ([4]; 4 min) | Enzalutamide Concentration, 10 min ([4]; 10 min) | Enzalutamide Concentration, 20 min ([4]; 20 min) | Enzalutamide Concentration, 40 min ([4]; 40 min) | Enzalutamide Concentration, 90 min ([4]; 90 min) | Enzalutamide Concentration, 1200 min ([4]; 1200 min) | AUC90 (area under the curve at 90 minutes) [4] | Cmax, 90 (maximum drug concentration through 90 minutes) [4] | Compound | other results
1 | 1.3 μg/cm^2 × min | 0.0 µg/mL | 61 µg/mL | 100 µg/mL | 100 µg/mL | 110 µg/mL | 120 µg/mL | 30 µg/mL | 9,500 min*μg/mL | 120 µg/mL | CNC(=O)c1ccc(N2C(=S)N(c3ccc(C#N)c(C(F)(F)F)c3)C(=O)C2(C)C)cc1F [Amorphous (spray-dried) enzalutamide - BREC-0035-09B(V)] | fusion of particles to larger particles by SEM after storage challenge [1]: fusion of particles to form larger particles; AUC90 [3, 7]: 8,900 min · mcg/ml; Cmax 90 [3, 7]: 110 µg/mL; AUC90 [3, 8]: 8,800 min · mcg/ml; Cmax 90 [3, 8]: 100 µg/mL; Tg ([5]; 75% RH): 64.0 °C; Tg ([5]; <5% RH): 88.5 °C
2 | 0.4 μg/cm^2 × min | 0.0 µg/mL | 1 µg/mL | 3 µg/mL | 5 µg/mL | 6 µg/mL | 7 µg/mL | 9 µg/mL | 500 µg·min/mL | 7 µg/mL | CNC(=O)c1ccc(N2C(=S)N(c3ccc(C#N)c(C(F)(F)F)c3)C(=O)C2(C)C)cc1F [Crystalline enzalutamide (Control 1)] | Maximum Flux ([2]; Table 9.3): 0.4 μg/cm^2-min; In vitro dissolution, Average, 0 min ([4]; Table 9.1, 0 min): 0.32 µg/mL; In vitro dissolution, Average, 4 min ([4]; Table 9.1, 4 min): 5.23 µg/mL; In vitro dissolution, Average, 10 min ([4]; Table 9.1, 10 min): 8.04 µg/mL; In vitro dissolution, Average, 20 min ([4]; Table 9.1, 20 min): 7.69 µg/mL; In vitro dissolution, Average, 40 min ([4]; Table 9.1, 40 min): 8.65 µg/mL; In vitro dissolution, Average, 90 min ([4]; Table 9.1, 90 min): 9.14 µg/mL; In vitro dissolution, Average, 1200 min ([4]; Table 9.1, 1200 min): 12.12 µg/mL; AUC90 min ([4]; Table 9.2): 740 µg·min/mL; Cmax, 90 min ([4]; Table 9.2): 10 µg/mL
